Measured values taken from US11377442B2, “Small molecule agonists and antagonists of NR2F6 activity” (ZANDER THERAPEUTICS, INC., priority 2016, dated 2022).
Read-outs that look alike come from different tables or passages of the source.

How the values were obtained:
Type in all cases: cell-based
[1] = biological target: T1, NR2F6 (Homo sapiens, UniProt P10588); experiment: NR2F6 agonist screening, Firefly signal cmpd/DMSO; settings: for Activity, cmpd/DMSO: Table 31
T1 construct: expressed in transfected cells; also transient transfection
T1 sequence (P10588 1-404): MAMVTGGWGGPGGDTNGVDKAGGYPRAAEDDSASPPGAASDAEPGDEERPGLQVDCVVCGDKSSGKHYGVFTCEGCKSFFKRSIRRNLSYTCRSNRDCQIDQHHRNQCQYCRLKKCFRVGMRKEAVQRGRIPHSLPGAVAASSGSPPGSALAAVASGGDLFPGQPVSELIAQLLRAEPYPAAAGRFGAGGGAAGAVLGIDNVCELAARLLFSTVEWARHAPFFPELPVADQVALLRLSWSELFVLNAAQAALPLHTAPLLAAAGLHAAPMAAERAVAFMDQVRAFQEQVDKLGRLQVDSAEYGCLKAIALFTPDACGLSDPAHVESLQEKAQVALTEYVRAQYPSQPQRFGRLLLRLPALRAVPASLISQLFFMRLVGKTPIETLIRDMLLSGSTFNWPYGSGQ

[2] = tested on: HEK293 pGL4; experiment: Firefly_pGL signal, cmpd/DMSO (pGL4 control cells); settings: Homo sapiens
[3] = biological target: T2, NR2F6 LBD (Homo sapiens, UniProt P10588); experiment: NR2F6 LBD transient transfection; settings: LBD
T2 construct: expressed in transfected cells
T2 sequence (P10588 165-393 limits assumed): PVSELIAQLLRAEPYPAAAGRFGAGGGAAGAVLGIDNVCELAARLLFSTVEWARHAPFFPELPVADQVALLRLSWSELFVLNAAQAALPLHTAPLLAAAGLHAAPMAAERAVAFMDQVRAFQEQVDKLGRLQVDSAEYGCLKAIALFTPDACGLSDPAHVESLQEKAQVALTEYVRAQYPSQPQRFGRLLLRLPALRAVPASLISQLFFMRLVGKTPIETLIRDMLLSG
Method in brief: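 LBD-transfected cells treated at 40, 10, 2 and 0.5 μM (4 replicates); cytotoxicity measured in parallel, normalized to DMSO (0%) and zero signal (100%). Higher concentrations excluded where signal loss reflected toxicity.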

[4] = tested on: Renilla; experiment: Renilla signal in NR2F6 agonist screening, cmpd/DMSO; settings: Renilla, F4
[5] = HEK293, 0.5 uM, pGL4, read-out: Firefly pGL4, cmpd/DMSO (mean)
[6] = HEK293, 2 uM, pGL4, read-out: Firefly pGL4, cmpd/DMSO (mean)
[7] = HEK293, 10 uM, pGL4, read-out: Firefly pGL4, cmpd/DMSO (mean)
[8] = HEK293, 40 uM, pGL4, read-out: Firefly pGL4, cmpd/DMSO (mean)
[9] = HEK293, pGL4, 1% FBS, 0.5 uM, read-out: Firefly, pGL4, 1% FBS, cmpd/DMSO (mean)
[10] = HEK293, pGL4, 1% FBS, 2 uM, read-out: Firefly, pGL4, 1% FBS, cmpd/DMSO (mean)
[11] = HEK293, pGL4, 1% FBS, 10 uM, read-out: Firefly, pGL4, 1% FBS, cmpd/DMSO (mean)
[12] = HEK293, pGL4, 1% FBS, 40 uM, read-out: Firefly, pGL4, 1% FBS, cmpd/DMSO (mean)
[13] = HEK293, pGL4, 10% FBS, 0.5 uM, read-out: Firefly, pGL4, 10% FBS, cmpd/DMSO (mean)
[14] = HEK293, pGL4, 10% FBS, 2 uM, read-out: Firefly, pGL4, 10% FBS, cmpd/DMSO (mean)
[15] = HEK293, pGL4, 10% FBS, 10 uM, read-out: Firefly, pGL4, 10% FBS, cmpd/DMSO (mean)
[16] = HEK293, pGL4, 10% FBS, 40 uM, read-out: Firefly, pGL4, 10% FBS, cmpd/DMSO (mean)
[17] = read-out: Renilla, F4, cmpd/DMSO (mean)
[18] = 1% FBS, read-out: Renilla, F4, 1% FBS, cmpd/DMSO (mean)
[19] = 10% FBS, read-out: Renilla, F4, 10% FBS, cmpd/DMSO (mean)

Question: How did the “Firefly F4, cmpd/DMSO (mean)” value ([1]; 0.5 uM) turn out when `O=S1(=O)C[C@H](N2CCCC2)[C@@H](S(=O)(=O)c2ccc(Cl)cc2)C1` [Compound D122] was run?
Answer: 1.6

Question: What about the “Firefly F4, cmpd/DMSO (mean)” value ([1]; 2 uM) of the same compound?
Answer: 3.3

Question: What about the “Firefly F4, cmpd/DMSO (mean)” value ([1]; 10 uM) of the same compound?
Answer: 6.8

Question: What about the “Firefly F4, cmpd/DMSO (mean)” value ([1]; 40 uM) of the same compound?
Answer: 0.7

Question: And the “F4, Firefly/Renilla for S/B(F4) > 3” value ([1]; 1% FBS, 2 uM)?
Answer: 2.3

Question: And the “Firefly, F4/pGL4 for S/B(F4) > 3” value ([1]; 1% FBS, 2 uM)?
Answer: 1.3

Question: What about the “F4, Firefly/Renilla for S/B(F4) > 3” value ([1]; 10% FBS, 10 uM) of the same compound?
Answer: 3.9

Question: What about the “Firefly, F4/pGL4 for S/B(F4) > 3” value ([1]; 10% FBS, 10 uM) of the same compound?
Answer: 3.1

Question: What about the “Firefly, F4, 1% FBS, cmpd/DMSO (mean)” value ([1]; 1% FBS, 0.5 uM) of the same compound?
Answer: 1.4

Question: What about the “Firefly, F4, 1% FBS, cmpd/DMSO (mean)” value ([1]; 1% FBS, 2 uM) of the same compound?
Answer: 3.2

Question: What about the “Firefly, F4, 1% FBS, cmpd/DMSO (mean)” value ([1]; 1% FBS, 10 uM) of the same compound?
Answer: 2.8

Question: And the “Firefly, F4, 1% FBS, cmpd/DMSO (mean)” value ([1]; 1% FBS, 40 uM)?
Answer: 0.3

Question: And the “Firefly, F4, 10% FBS, cmpd/DMSO (mean)” value ([1]; 10% FBS, 0.5 uM)?
Answer: 1.5

Question: What about the “Firefly, F4, 10% FBS, cmpd/DMSO (mean)” value ([1]; 10% FBS, 2 uM) of the same compound?
Answer: 1.8

Question: And the “Firefly, F4, 10% FBS, cmpd/DMSO (mean)” value ([1]; 10% FBS, 10 uM)?
Answer: 11

Question: What about the “Firefly, F4, 10% FBS, cmpd/DMSO (mean)” value ([1]; 10% FBS, 40 uM) of the same compound?
Answer: 0.5

Question: What about the “Activity, cmpd/DMSO” value [1] of the same compound?
Answer: 6.6

Question: What about the fold induction at 0.5 µM [2, 5] of the same compound?
Answer: 1.3

Question: What about the fold induction at 2 µM [2, 6] of the same compound?
Answer: 2.4

Question: What about the fold induction at 10 µM [2, 7] of the same compound?
Answer: 2.3

Question: What about the fold induction at 40 µM [2, 8] of the same compound?
Answer: 0.6

Question: And the fold induction at 0.5 µM [2, 9]?
Answer: 1.1

Question: What about the fold induction at 2 µM [2, 10] of the same compound?
Answer: 2.5

Question: And the fold induction at 10 µM [2, 11]?
Answer: 2.6

Question: And the fold induction at 40 µM [2, 12]?
Answer: 0.7

Question: And the fold induction at 0.5 µM [2, 13]?
Answer: 0.9

Question: And the fold induction at 2 µM [2, 14]?
Answer: 2.2

Question: What about the fold induction at 10 µM [2, 15] of the same compound?
Answer: 3.7

Question: What about the fold induction at 40 µM [2, 16] of the same compound?
Answer: 0.7

Question: What about the “Firefly LBD, cmpd/DMSO (mean)” value ([3]; 0.5 uM) of the same compound?
Answer: 1.2

Question: What about the “Firefly LBD, cmpd/DMSO (mean)” value ([3]; 2 uM) of the same compound?
Answer: 2.5

Question: And the “Firefly LBD, cmpd/DMSO (mean)” value ([3]; 10 uM)?
Answer: 3.1

Question: And the “Firefly LBD, cmpd/DMSO (mean)” value ([3]; 40 uM)?
Answer: 0.6

Question: What about the fold induction at 0.5 µM [4, 17] of the same compound?
Answer: 1.1

Question: What about the fold induction at 2 µM [4, 17] of the same compound?
Answer: 1.3

Question: What about the fold induction at 10 µM [4, 17] of the same compound?
Answer: 2.2

Question: And the fold induction at 40 µM [4, 17]?
Answer: 0.2

Question: What about the fold induction at 0.5 µM [4, 18] of the same compound?
Answer: 1.2

Question: What about the fold induction at 2 µM [4, 18] of the same compound?
Answer: 1.4

Question: And the fold induction at 10 µM [4, 18]?
Answer: 2.2

Question: And the fold induction at 0.5 µM [4, 19]?
Answer: 1

Question: And the fold induction at 2 µM [4, 19]?
Answer: 1

Question: What about the fold induction at 10 µM [4, 19] of the same compound?
Answer: 2.9

Question: What does the source list for `O=S1(=O)C[C@H](NC2CCCCC2)[C@@H](S(=O)(=O)c2ccc(Cl)cc2)C1` [Compound D124]?
Answer: Firefly F4, cmpd/DMSO (mean) ([1]; 0.5 uM): 1.6; Firefly F4, cmpd/DMSO (mean) ([1]; 2 uM): 1.3; Firefly F4, cmpd/DMSO (mean) ([1]; 10 uM): 4.6; Firefly F4, cmpd/DMSO (mean) ([1]; 40 uM): 2.1; F4, Firefly/Renilla for S/B(F4) > 3 ([1]; 1% FBS, 10 uM): 2.0; Firefly, F4/pGL4 for S/B(F4) > 3 ([1]; 1% FBS, 10 uM): 1.3; F4, Firefly/Renilla for S/B(F4) > 3 ([1]; 10% FBS, 40 uM): 1.7; Firefly, F4/pGL4 for S/B(F4) > 3 ([1]; 10% FBS, 40 uM): 1.4; Firefly, F4, 1% FBS, cmpd/DMSO (mean) ([1]; 1% FBS, 0.5 uM): 0.9; Firefly, F4, 1% FBS, cmpd/DMSO (mean) ([1]; 1% FBS, 2 uM): 1.9; Firefly, F4, 1% FBS, cmpd/DMSO (mean) ([1]; 1% FBS, 10 uM): 3.1; Firefly, F4, 1% FBS, cmpd/DMSO (mean) ([1]; 1% FBS, 40 uM): 0.4; Firefly, F4, 10% FBS, cmpd/DMSO (mean) ([1]; 10% FBS, 0.5 uM): 1.2; Firefly, F4, 10% FBS, cmpd/DMSO (mean) ([1]; 10% FBS, 2 uM): 1.0; Firefly, F4, 10% FBS, cmpd/DMSO (mean) ([1]; 10% FBS, 10 uM): 2.3; Firefly, F4, 10% FBS, cmpd/DMSO (mean) ([1]; 10% FBS, 40 uM): 4.5; fold induction at 0.5 µM [2, 5]: 1.4; fold induction at 2 µM [2, 6]: 1.5; fold induction at 10 µM [2, 7]: 3.1; fold induction at 40 µM [2, 8]: 0.7; fold induction at 0.5 µM [2, 9]: 1.1; fold induction at 2 µM [2, 10]: 1.6; fold induction at 10 µM [2, 11]: 2.4; fold induction at 40 µM [2, 12]: 0.8; fold induction at 0.5 µM [2, 13]: 1.2; fold induction at 2 µM [2, 14]: 1.4; fold induction at 10 µM [2, 15]: 2.2; fold induction at 40 µM [2, 16]: 3.2; Firefly LBD, cmpd/DMSO (mean) ([3]; 0.5 uM): 1.4; Firefly LBD, cmpd/DMSO (mean) ([3]; 2 uM): 1.6; Firefly LBD, cmpd/DMSO (mean) ([3]; 10 uM): 3.6; Firefly LBD, cmpd/DMSO (mean) ([3]; 40 uM): 0.5; fold induction at 0.5 µM [4, 17]: 1.1; fold induction at 2 µM [4, 17]: 1.2; fold induction at 10 µM [4, 17]: 1.5; fold induction at 40 µM [4, 17]: 1.8; fold induction at 0.5 µM [4, 18]: 1.1; fold induction at 2 µM [4, 18]: 1.2; fold induction at 10 µM [4, 18]: 1.5; fold induction at 40 µM [4, 18]: 1.6; fold induction at 0.5 µM [4, 19]: 1; fold induction at 2 µM [4, 19]: 1; fold induction at 10 µM [4, 19]: 1.3; fold induction at 40 µM [4, 19]: 2.6

Question: What does the source list for `CC1CCN([C@H]2CS(=O)(=O)C[C@@H]2S(=O)(=O)c2ccc(Cl)cc2)CC1` [Compound D125]?
Answer: Firefly F4, cmpd/DMSO (mean) ([1]; 0.5 uM): 1.3; Firefly F4, cmpd/DMSO (mean) ([1]; 2 uM): 2.3; Firefly F4, cmpd/DMSO (mean) ([1]; 10 uM): 5.6; Firefly F4, cmpd/DMSO (mean) ([1]; 40 uM): 0.9; Activity, cmpd/DMSO [1]: 7.3; fold induction at 0.5 µM [2, 5]: 1.4; fold induction at 2 µM [2, 6]: 1.9; fold induction at 10 µM [2, 7]: 4.2; fold induction at 40 µM [2, 8]: 0.6; Firefly LBD, cmpd/DMSO (mean) ([3]; 0.5 uM): 1.0; Firefly LBD, cmpd/DMSO (mean) ([3]; 2 uM): 1.6; Firefly LBD, cmpd/DMSO (mean) ([3]; 10 uM): 4.6; Firefly LBD, cmpd/DMSO (mean) ([3]; 40 uM): 0.4; fold induction at 0.5 µM [4, 17]: 1; fold induction at 2 µM [4, 17]: 1.3; fold induction at 10 µM [4, 17]: 1.8; fold induction at 40 µM [4, 17]: 1.3
